Like-named read-outs stand apart in the source and are kept apart here.
Tests used:
Format in all cases: cell-based
[1] = system: HCT-15 colorectal cancer cells; assay: antitumor activity, sulforhodamine B cell growth assay, HCT-15
Method: (§1) The THIQ compound containing a macrocyclic structure of the present invention was administered to various cancer cell lines, and the antitumor activity (Go value) was observed. Specifically, verification was performed according to the literature (Yamori, T.; Matsunaga, A.; Sato, S.; Yamazaki, K.; Komi, A.; Ishizu, K. et al. Cancer Res. 1999, 59, 4042) by the following procedure.
(§2) Cells were plated at an appropriate density in a 96-well plate in RPMI 1640 together with 5% fetal bovine serum, and adhered overnight. The cells were exposed to a drug for 48 hours. Then, according to the sulforhodamine B assay described by Skehan et al (Skehan P., Storeng R., Scudiero D., Monks A., McMahon J., Vistica D., Warren J. T., Bokesch H., Kenney S., Boyd M. R. J Natl. Cancer Inst, 1990, 82, 1107-1112), the cell growth rate was measured. The absorbance of the control well (C) and the test well (T) was measured at 525 nm. In addition, the time at which the drug was added was set as time 0, and the absorbance for the test well (T0) was measured. Using these measured values, the cell growth inhibitory effect (% growth=PG) was calculated by the following formula at each concentration of the drug.
(§3) (T<T0): PG=100×[(T−T0)/T]
(§4) The PG values determined above for each cell line were plotted against the concentration (logarithm) on a semi-logarithmic graph, and summarized for each visceral cancer. Concentrations at which the dose-response curve of each cell line crossed the horizontal line of PG=50%, 0%, or −50% were calculated. These concentrations were defined as Log GI50, Log TGI, and Log LC50. Actually, using two data points of the drug concentration before and after crossing each horizontal line, the drug concentration (logarithmic value) at the intersection of the straight line connecting the two points and the horizontal line for each PG was calculated.

[2] = system: HBC-5 breast cancer cells; assay: antitumor activity, sulforhodamine B cell growth assay, HBC-5
Method: as §1, §2, §3, §4

[3] = system: DMS273 lung cancer cells; assay: antitumor activity, sulforhodamine B cell growth assay, DMS273
Method: as §1, §2, §3, §4

[4] = system: OVCAR-8 cancer cells; assay: antitumor activity, sulforhodamine B cell growth assay, OVCAR-8
Method: as §1, §2, §3, §4

[5] = system: MKN-B gastric cancer cells; assay: antitumor activity, sulforhodamine B cell growth assay, MKN-B
Method: as §1, §2, §3, §4

[6] = system: ACHN kidney cancer cells; assay: antitumor activity, sulforhodamine B cell growth assay, ACHN
Method: as §1, §2, §3, §4

[7] = system: KM-12 colorectal cancer cells; assay: antitumor activity, sulforhodamine B cell growth assay, KM-12
Method: as §1, §2, §3, §4

[8] = system: NCI-H226 lung cancer cells; assay: antitumor activity, sulforhodamine B cell growth assay, NCI-H226
Method: as §1, §2, §3, §4

[9] = system: various cancer cell lines; assay: Verification of antitumor activity, whole panel of cancer cell lines; conditions: in words, compared with Cyanosafracin B
Method: as §1, §2, §3, §4

[10] = system: SK-OV-3 cancer cells; assay: antitumor activity, sulforhodamine B cell growth assay, SK-OV-3
Method: as §1, §2, §3, §4

[11] = system: St-4 gastric cancer cells; assay: antitumor activity, sulforhodamine B cell growth assay, St-4
Method: as §1, §2, §3, §4

[12] = system: HCC2998 colorectal cancer cells; assay: antitumor activity, sulforhodamine B cell growth assay, HCC2998
Method: as §1, §2, §3, §4

[13] = system: NCI-H460 lung cancer cells; assay: antitumor activity, sulforhodamine B cell growth assay, NCI-H460
Method: as §1, §2, §3, §4

[14] = system: SNB-75 central nervous system cancer cells; assay: antitumor activity, sulforhodamine B cell growth assay, SNB-75
Method: as §1, §2, §3, §4

[15] = system: BSY-1 breast cancer cells; assay: antitumor activity, sulforhodamine B cell growth assay, BSY-1
Method: as §1, §2, §3, §4

[16] = system: U251 central nervous system cancer cells; assay: antitumor activity, sulforhodamine B cell growth assay, U251
Method: as §1, §2, §3, §4

[17] = system: A549 lung cancer cells; assay: antitumor activity, sulforhodamine B cell growth assay, A549
Method: as §1, §2, §3, §4

[18] = system: DU-145 prostate cancer cells; assay: antitumor activity, sulforhodamine B cell growth assay, DU-145
Method: as §1, §2, §3, §4

[19] = system: SF-539 central nervous system cancer cells; assay: antitumor activity, sulforhodamine B cell growth assay, SF-539
Method: as §1, §2, §3, §4

[20] = system: OVCAR-3 cancer cells; assay: antitumor activity, sulforhodamine B cell growth assay, OVCAR-3
Method: as §1, §2, §3, §4

[21] = system: MCF-7 breast cancer cells; assay: antitumor activity, sulforhodamine B cell growth assay, MCF-7
Method: as §1, §2, §3, §4

[22] = system: MKN-A gastric cancer cells; assay: antitumor activity, sulforhodamine B cell growth assay, MKN-A
Method: as §1, §2, §3, §4

[23] = MKN-B, drug exposure 48 hours, read-out: GI50 value: 50% growth inhibitory concentration
[24] = St-4 (SI-4 in Tables 2-11), drug exposure 48 hours, read-out: GI50 value: 50% growth inhibitory concentration
[25] = BSY-1, drug exposure 48 hours, read-out: GI50 value: 50% growth inhibitory concentration
[26] = MKN-A, drug exposure 48 hours, read-out: GI50 value: 50% growth inhibitory concentration

COc1c(C)cc2c(c1O)[C@@H]1[C@@H]3Cc4c5c(C)c6c(c4C(CNC(=O)[C@H](C)NC(=O)OCC4C=C(CO5)Cn5c(=O)n(-c7ccccc7)c(=O)n54)N3[C@@H](C#N)[C@H](C2)N1C)OCO6 [Compound 16]
GI50 ([1]; Homo sapiens, HCT-15, drug exposure 48 hours, read-out: GI50 value: 50% growth inhibitory concentration): 43 nM | GI50 ([2]; HBC5, HBC-5, drug exposure 48 hours, read-out: GI50 value: 50% growth inhibitory concentration): 6.9 nM | GI50 ([3]; Homo sapiens, DMS-273, DMS273, drug exposure 48 hours, read-out: GI50 value: 50% growth inhibitory concentration): 15 nM | GI50 ([4]; Homo sapiens, OVCAR-8, drug exposure 48 hours, read-out: GI50 value: 50% growth inhibitory concentration): 21 nM | GI50 [5, 23]: 30 nM | GI50 ([6]; Homo sapiens, ACHN, drug exposure 48 hours, read-out: GI50 value: 50% growth inhibitory concentration): 25 nM | GI50 ([7]; Homo sapiens, KM12, KM-12, drug exposure 48 hours, read-out: GI50 value: 50% growth inhibitory concentration): 14 nM | GI50 ([8]; Homo sapiens, NCI-H226, drug exposure 48 hours, read-out: GI50 value: 50% growth inhibitory concentration): 25 nM | antitumor activity [9]: better antitumor activity than Cyanosafracin B | GI50 ([10]; Homo sapiens, SK-OV-3, drug exposure 48 hours, read-out: GI50 value: 50% growth inhibitory concentration): 34 nM | GI50 [11, 24]: 37 nM | GI50 ([12]; Homo sapiens, HCC 2998, HCC2998, drug exposure 48 hours, read-out: GI50 value: 50% growth inhibitory concentration): 17 nM | GI50 ([13]; Homo sapiens, NCI-H460, drug exposure 48 hours, read-out: GI50 value: 50% growth inhibitory concentration): 36 nM | GI50 ([14]; Homo sapiens, SNB-75, drug exposure 48 hours, read-out: GI50 value: 50% growth inhibitory concentration): 9.9 nM | GI50 [15, 25]: 3.1 nM | GI50 ([16]; Homo sapiens, U-251, U251, drug exposure 48 hours, read-out: GI50 value: 50% growth inhibitory concentration): 5.8 nM | GI50 ([17]; Homo sapiens, A549, drug exposure 48 hours, read-out: GI50 value: 50% growth inhibitory concentration): 51 nM | GI50 ([18]; Homo sapiens, DU-145, drug exposure 48 hours, read-out: GI50 value: 50% growth inhibitory concentration): 41 nM | GI50 ([19]; Homo sapiens, SF-539, drug exposure 48 hours, read-out: GI50 value: 50% growth inhibitory concentration): 8.2 nM | GI50 ([20]; Homo sapiens, OVCAR-3, drug exposure 48 hours, read-out: GI50 value: 50% growth inhibitory concentration): 6.4 nM | GI50 ([21]; Homo sapiens, MCF7, MCF-7, drug exposure 48 hours, read-out: GI50 value: 50% growth inhibitory concentration): 4.4 nM | GI50 [22, 26]: 29 nM

COc1c(C)cc2c(c1O)C1C3Cc4c5c(C)c6c(c4C(CNC(=O)C(C)NC(=O)OCC4C=C(CO5)CC5C(=O)N(c7ccccc7)C(=O)C45)N3C(C#N)C(C2)N1C)OCO6 (centres unmarked) [Compound 18]
GI50 ([1]; HCT-15, drug exposure 48 hours, read-out: GI50 value: 50% growth inhibitory concentration): 630 nM | GI50 ([2]; HBC-5, drug exposure 48 hours, read-out: GI50 value: 50% growth inhibitory concentration): 38 nM | GI50 ([3]; DMS273, drug exposure 48 hours, read-out: GI50 value: 50% growth inhibitory concentration): 100 nM | GI50 ([4]; OVCAR-8, drug exposure 48 hours, read-out: GI50 value: 50% growth inhibitory concentration): 130 nM | GI50 [5, 23]: 160 nM | GI50 ([6]; ACHN, drug exposure 48 hours, read-out: GI50 value: 50% growth inhibitory concentration): 240 nM | GI50 ([7]; KM-12, drug exposure 48 hours, read-out: GI50 value: 50% growth inhibitory concentration): 100 nM | GI50 ([8]; NCI-H226, drug exposure 48 hours, read-out: GI50 value: 50% growth inhibitory concentration): 280 nM | antitumor activity [9]: better antitumor activity than Cyanosafracin B | GI50 ([10]; SK-OV-3, drug exposure 48 hours, read-out: GI50 value: 50% growth inhibitory concentration): 410 nM | GI50 [11, 24]: 300 nM | GI50 ([12]; HCC2998, drug exposure 48 hours, read-out: GI50 value: 50% growth inhibitory concentration): 95 nM | GI50 ([13]; NCI-H460, drug exposure 48 hours, read-out: GI50 value: 50% growth inhibitory concentration): 260 nM | GI50 ([14]; SNB-75, drug exposure 48 hours, read-out: GI50 value: 50% growth inhibitory concentration): 50 nM | GI50 [15, 25]: 19 nM | GI50 ([16]; U251, drug exposure 48 hours, read-out: GI50 value: 50% growth inhibitory concentration): 50 nM | GI50 ([17]; A549, drug exposure 48 hours, read-out: GI50 value: 50% growth inhibitory concentration): 540 nM | GI50 ([18]; DU-145, drug exposure 48 hours, read-out: GI50 value: 50% growth inhibitory concentration): 330 nM | GI50 ([19]; SF-539, drug exposure 48 hours, read-out: GI50 value: 50% growth inhibitory concentration): 33 nM | GI50 ([20]; OVCAR-3, drug exposure 48 hours, read-out: GI50 value: 50% growth inhibitory concentration): 43 nM | GI50 ([21]; MCF-7, drug exposure 48 hours, read-out: GI50 value: 50% growth inhibitory concentration): 22 nM | GI50 [22, 26]: 210 nM

CC1=C(C)C(=O)C2=C(CC3(C)[C@H]4c5c(cc(C)c(C)c5C)C[C@@](C)(C(C)N3[C@H]2CNC(=O)C(C)C)N4C)C1=O (some centres unmarked) [drawing 160]
GI50 ([1]; Homo sapiens, HCT-15 colorectal cancer cells, read-out: antitumor activity GI50 value: 50% growth inhibitory concentration): 390 nM | GI50 ([2]; HBC5, HBC-5 breast cancer cells, read-out: antitumor activity GI50 value: 50% growth inhibitory concentration): 62 nM | GI50 ([3]; Homo sapiens, DMS-273, DMS273 lung cancer cells, read-out: antitumor activity GI50 value: 50% growth inhibitory concentration): 270 nM | GI50 ([4]; Homo sapiens, OVCAR-8 cervical cancer cells, read-out: antitumor activity GI50 value: 50% growth inhibitory concentration): 290 nM | GI50 ([5]; MKN-B gastric cancer cells, read-out: antitumor activity GI50 value: 50% growth inhibitory concentration): 170 nM | GI50 ([6]; Homo sapiens, ACHN kidney cancer cells, read-out: antitumor activity GI50 value: 50% growth inhibitory concentration): 320 nM | GI50 ([7]; Homo sapiens, KM12, KM-12 colorectal cancer cells, read-out: antitumor activity GI50 value: 50% growth inhibitory concentration): 530 nM | GI50 ([8]; Homo sapiens, NCI-H226, NCl-H226 lung cancer cells, read-out: antitumor activity GI50 value: 50% growth inhibitory concentration): 310 nM | GI50 ([10]; Homo sapiens, SK-OV-3 cervical cancer cells, read-out: antitumor activity GI50 value: 50% growth inhibitory concentration): 540 nM | GI50 ([11]; SI-4 gastric cancer cells, read-out: antitumor activity GI50 value: 50% growth inhibitory concentration): 430 nM | GI50 ([12]; Homo sapiens, HCC 2998, HCC2998 colorectal cancer cells, read-out: antitumor activity GI50 value: 50% growth inhibitory concentration): 350 nM | GI50 ([13]; Homo sapiens, NCI-H460, NCl--H460 lung cancer cells, read-out: antitumor activity GI50 value: 50% growth inhibitory concentration): 400 nM | GI50 ([14]; Homo sapiens, SNB-75 central nervous system cancer cells, read-out: antitumor activity GI50 value: 50% growth inhibitory concentration): 150 nM | GI50 ([15]; BSY-1 breast cancer cells, read-out: antitumor activity GI50 value: 50% growth inhibitory concentration): 34 nM | GI50 ([16]; Homo sapiens, U-251, U251 central nervous system cancer cells, read-out: antitumor activity GI50 value: 50% growth inhibitory concentration): 370 nM | GI50 ([17]; Homo sapiens, A549 lung cancer cells, read-out: antitumor activity GI50 value: 50% growth inhibitory concentration): 1600 nM | GI50 ([18]; Homo sapiens, DU-145 prostate cancer cells, read-out: antitumor activity GI50 value: 50% growth inhibitory concentration): 490 nM | GI50 ([19]; Homo sapiens, SF-539 central nervous system cancer cells, read-out: antitumor activity GI50 value: 50% growth inhibitory concentration): 180 nM | GI50 ([20]; Homo sapiens, OVCAR-3 cervical cancer cells, read-out: antitumor activity GI50 value: 50% growth inhibitory concentration): 130 nM | GI50 ([21]; Homo sapiens, MCF7, MCF-7 breast cancer cells, read-out: antitumor activity GI50 value: 50% growth inhibitory concentration): 52 nM | GI50 ([22]; MKN-A gastric cancer cells, read-out: antitumor activity GI50 value: 50% growth inhibitory concentration): 250 nM
